Test results as given in the NIST ThermoML archive (doi:10.1016/j.tca.2013.02.009).
Numbers after ± are expanded uncertainties.

Experiment: molar heat capacity at constant pressure
Conditions: 101.33 kPa, Crystal, Large sample (1 g) DSC

In the case of `[O-2].[O-2].[O-2].[Y+3].[Y+3]` [yttrium oxide (Y2O3)], the “molar heat capacity at constant pressure” value (603 K) is reported as 122.98 ± 5.2 J/K/mol, the “molar heat capacity at constant pressure” value (613 K) is reported as 123.25 ± 5.2 J/K/mol and the “molar heat capacity at constant pressure” value (623 K) is reported as 123.52 ± 5.2 J/K/mol. The “molar heat capacity at constant pressure” value (633 K) was 123.77 ± 5.2 J/K/mol, the “molar heat capacity at constant pressure” value (643 K) was 124 ± 5.3 J/K/mol and the “molar heat capacity at constant pressure” value (653 K) was 124.22 ± 5.3 J/K/mol. The “molar heat capacity at constant pressure” value (663 K) was 124.43 ± 5.3 J/K/mol, the “molar heat capacity at constant pressure” value (673 K) was 124.63 ± 5.3 J/K/mol and the “molar heat capacity at constant pressure” value (683 K) was 124.82 ± 5.3 J/K/mol. For the same molecule, the “molar heat capacity at constant pressure” value (693 K) was 125 ± 5.3 J/K/mol, the “molar heat capacity at constant pressure” value (703 K) was 125.16 ± 5.3 J/K/mol and the “molar heat capacity at constant pressure” value (713 K) was 125.32 ± 5.3 J/K/mol. For the same molecule, the “molar heat capacity at constant pressure” value (723 K) was 125.47 ± 5.3 J/K/mol, the “molar heat capacity at constant pressure” value (733 K) was 125.62 ± 5.3 J/K/mol and the “molar heat capacity at constant pressure” value (743 K) was 125.75 ± 5.3 J/K/mol. For the same molecule, the “molar heat capacity at constant pressure” value (753 K) was 125.88 ± 5.3 J/K/mol, the “molar heat capacity at constant pressure” value (763 K) was 126 ± 5.3 J/K/mol and the “molar heat capacity at constant pressure” value (773 K) was 126.12 ± 5.3 J/K/mol. For the same molecule, the “molar heat capacity at constant pressure” value (783 K) was 126.22 ± 5.4 J/K/mol, the “molar heat capacity at constant pressure” value (793 K) was 126.33 ± 5.4 J/K/mol and the “molar heat capacity at constant pressure” value (803 K) was 126.42 ± 5.4 J/K/mol. The “molar heat capacity at constant pressure” value (813 K) was 126.52 ± 5.4 J/K/mol, the “molar heat capacity at constant pressure” value (823 K) was 126.6 ± 5.4 J/K/mol and the “molar heat capacity at constant pressure” value (833 K) was 126.68 ± 5.4 J/K/mol. The “molar heat capacity at constant pressure” value (843 K) was 126.76 ± 5.4 J/K/mol, the “molar heat capacity at constant pressure” value (853 K) was 126.83 ± 5.4 J/K/mol and the “molar heat capacity at constant pressure” value (863 K) was 126.9 ± 5.4 J/K/mol. For the same molecule, the “molar heat capacity at constant pressure” value (873 K) was 126.97 ± 5.4 J/K/mol, the “molar heat capacity at constant pressure” value (883 K) was 127.03 ± 5.4 J/K/mol and the “molar heat capacity at constant pressure” value (893 K) was 127.09 ± 5.4 J/K/mol. For the same molecule, the “molar heat capacity at constant pressure” value (903 K) was 127.14 ± 5.4 J/K/mol, the “molar heat capacity at constant pressure” value (913 K) was 127.19 ± 5.4 J/K/mol and the “molar heat capacity at constant pressure” value (923 K) was 127.24 ± 5.4 J/K/mol. The “molar heat capacity at constant pressure” value (933 K) was 127.28 ± 5.4 J/K/mol, the “molar heat capacity at constant pressure” value (943 K) was 127.32 ± 5.4 J/K/mol and the “molar heat capacity at constant pressure” value (953 K) was 127.36 ± 5.4 J/K/mol. The “molar heat capacity at constant pressure” value (963 K) was 127.4 ± 5.4 J/K/mol, the “molar heat capacity at constant pressure” value (973 K) was 127.43 ± 5.4 J/K/mol and the “molar heat capacity at constant pressure” value (983 K) was 127.46 ± 5.4 J/K/mol. The “molar heat capacity at constant pressure” value (993 K) was 127.49 ± 5.4 J/K/mol, the “molar heat capacity at constant pressure” value (1003 K) was 127.52 ± 5.4 J/K/mol and the “molar heat capacity at constant pressure” value (1013 K) was 127.54 ± 5.4 J/K/mol. For the same molecule, the “molar heat capacity at constant pressure” value (1023 K) was 127.57 ± 5.4 J/K/mol, the “molar heat capacity at constant pressure” value (1033 K) was 127.59 ± 5.4 J/K/mol and the “molar heat capacity at constant pressure” value (1043 K) was 127.61 ± 5.4 J/K/mol. The “molar heat capacity at constant pressure” value (1053 K) was 127.62 ± 5.4 J/K/mol, the “molar heat capacity at constant pressure” value (1063 K) was 127.64 ± 5.4 J/K/mol and the “molar heat capacity at constant pressure” value (1073 K) was 127.65 ± 5.4 J/K/mol. For the same molecule, the “molar heat capacity at constant pressure” value (1083 K) was 127.66 ± 5.4 J/K/mol, the “molar heat capacity at constant pressure” value (1093 K) was 127.67 ± 5.4 J/K/mol and the “molar heat capacity at constant pressure” value (1103 K) was 127.68 ± 5.4 J/K/mol. The “molar heat capacity at constant pressure” value (1113 K) was 127.68 ± 5.4 J/K/mol, the “molar heat capacity at constant pressure” value (1123 K) was 127.68 ± 5.4 J/K/mol and the “molar heat capacity at constant pressure” value (1133 K) was 127.69 ± 5.4 J/K/mol. The “molar heat capacity at constant pressure” value (1143 K) was 127.69 ± 5.4 J/K/mol, the “molar heat capacity at constant pressure” value (1153 K) was 127.69 ± 5.4 J/K/mol and the “molar heat capacity at constant pressure” value (1163 K) was 127.7 ± 5.4 J/K/mol. For the same molecule, the “molar heat capacity at constant pressure” value (1173 K) was 127.7 ± 5.4 J/K/mol, the “molar heat capacity at constant pressure” value (1183 K) was 127.7 ± 5.4 J/K/mol and the “molar heat capacity at constant pressure” value (1193 K) was 127.7 ± 5.4 J/K/mol. The “molar heat capacity at constant pressure” value (1203 K) was 127.69 ± 5.4 J/K/mol.
